Experiments:
mGPR17 = target: T1, mGPR17 (Mus musculus, UniProt Q6NS65); experiment: [35S]GTPγS binding in membranes of 1321N1 cells transfected with pcDNA3.1-Gpr17m; type: biochemical; conditions: for EC50: membranes of 1321N1 cells expressing mouse GPR17, mean±SEM of three experiments, read-out: EC50, stimulation of [35S]GTPγS binding
T1 construct: contains a 1020 base pairs open reading frame (ORF) that encodes for a putative 339 amino acid protein; expressed in transfected cells; host or cells: 1321N1 human astrocytoma cells (transient, calcium phosphate); membranes
Description: The pharmacological profile of mGPR17 was then assessed. Since stimulation of GPCRs results in increased binding of GTP to G proteins (which can, in turn, be quantified by measuring [^35S]GTPγS binding to purified membranes; see [13]), GPR17 activation in the heterologous system was determined by testing the increase of [^35S]GTPγS binding by exogenously-added agonists in membranes from transfected cells, [14], [15]. […] The ability of some known purinergic and cysLT antagonists to counteract agonist-induced GTPγS binding stimulation in cells expressing mGPR17 was also assessed.
Figure 1 Effect of purinergic and leukotriene ligands on mGPR17 with [^35S]GTPγS binding. Membrane aliquots (10 µg), obtained from 1321N1 cells transfected with pcDNA3.1-Gpr17m (A,B), were incubated with the indicated concentrations of purinergic (A) or leukotriene (B) agonists. […] (D) Effect of P2Y or CysLT receptor antagonist on agonist-stimulated [^35S]GTPγS binding. […] All data are expressed as percentage of basal [^35S]GTPγS binding (set to 100%) and represent the mean±SEM of three different experiments each performed in duplicate.
Human astrocytoma cells 1321N1 cells were cultured as described. For [^35S]GTPγS, 10^6 1321N1 cells were seeded on 75 cm^2 flasks and transfected by the calcium phosphate precipitation method.
Control and transfected 1321N1 cells were homogenized in 5 mM TRIS-HCl, 2 mM EDTA, pH 7.4 and centrifuged at 48000 g for 15 min at 4°C. The resulting plasma membranes were suspended in binding buffer and used in [^35S]GTPγS binding assay as previously described.
For [^35S]GTPγS binding data analysis and graphic presentation, a non-linear multipurpose curve-fitting program Graph-Pad Prism was used and the EC50 values were derived. Data are reported as mean±SEM of three different experiments (performed in duplicate).

[1] = system: GPR17+ oligodendrocyte precursors in primary cortical cultures; experiment: Oligodendrocyte precursor maturation in primary mixed neuronal/glial cortical cultures (immunostaining, cell counts); type: cell-based, rat; conditions: 72 h
Description: Figure 4 Presence and activation of GPR17 in oligodendrocyte precursor cells of primary cortical cultures maintained in vitro. […] Micrographs (A–H) show their phenotype characterization. […] Colocalization of GPR17 with these markers is shown in yellow-orange cells. […] In blue, Hoechst 33258 stained nuclei. Single cell RT-PCR was used to confirm expression of GPR17 in oligodendroglial-like cells (I). For this analysis, cells were picked up from living cultures using cell morphology as a guide at the light microscope. Left micrograph: an example of a brightfield showing cells (arrows) with oligodendrocyte morphology. These cells can be distinguished from neurons based on their size (approximately 1/3 the size of neurons), phase-dark cell bodies and presence of fine ramifications. The oligodendrocyte nature of cells with this morphology was confirmed by co-immunostaining for O4 and GPR17 at a subsequent time after culture fixing (arrows in right micrograph). By following this method, one living cell or a small number of cells (up to 10) were sucked from living cultures (see MATERIALS AND METHODS) and processed for RT-PCR analysis. […] Rat cortex was utilized as a positive control (see last lane). Scale bars: 15 µm. […] (K) Quantification of the percentage of GPR17^+ cells that also co-express the indicated oligodendrocyte markers. Total number (n) of GPR17^+ cells counted from two different coverslips for each preparation: for NG2, n = 3502; for O4, n = 2685; for CNPase, n = 1738; for MBP, n = 3615. Data were obtained from five different primary culture preparations.
Primary mixed neuronal/glial cultures from cerebral cortex were obtained from E18 Sprague-Dawley rats according to standard procedures [34]. Pregnant animals were euthanized by cervical dislocation under CO2 anesthesia, and the fetuses removed and put into ice-cold Hanks balanced salt solution. […]

GPR17 = target: T2, GPR17 (Mus musculus, UniProt Q6NS65); experiment: Permanent MCAo focal cerebral ischemia, brain infarct size by MRI; type: in vivo
T2 construct: from tissue; host or cells: brain of living male CD1 mice after permanent MCAo
Description: To address this issue, 6 mice received an anti-sense oligonucleotide (616) specifically designed to knock down this receptor in vivo. Animals were injected intracerebroventricularly 20 min and 24 h after MCAo. […] Another group of 6 animals received in parallel a “scrambled” oligonucleotide randomly generated on the basis of the nucleotide sequence of 616. This group of animals was utilized as a control group in this set of experiments. […] The evolution of ischemic damage was followed longitudinally in living animals by Magnetic Resonance Imaging (MRI) at 2, 24 and 48 h after MCAo.
Images were taken from the same animals at 2, 24 and 48 h after MCAo. […] (B) Quantitative analysis of infarct size volume at 24 and 48 hours after MCAo in mice receiving Scr, 616 or Can (mean of 6 animals/group). Data are expressed as percentage variation of infarct volume at 24 and 48 h after MCAo compared to 2 h considered as 100% (see also MATERIALS AND METHODS).
Male CD1 mice (Charles River, Calco, Italy) weighing 20–25 g, after intraperitoneally anesthetized with ketamine (0.1 mg/kg) and xylazine (0.02 mg/kg), underwent permanent MCAo, as previously described [35]. […]

[2] = UDP-glucose 100 µM, LTD4 100 nM

T1 sequence (Q6NS65 whole entry): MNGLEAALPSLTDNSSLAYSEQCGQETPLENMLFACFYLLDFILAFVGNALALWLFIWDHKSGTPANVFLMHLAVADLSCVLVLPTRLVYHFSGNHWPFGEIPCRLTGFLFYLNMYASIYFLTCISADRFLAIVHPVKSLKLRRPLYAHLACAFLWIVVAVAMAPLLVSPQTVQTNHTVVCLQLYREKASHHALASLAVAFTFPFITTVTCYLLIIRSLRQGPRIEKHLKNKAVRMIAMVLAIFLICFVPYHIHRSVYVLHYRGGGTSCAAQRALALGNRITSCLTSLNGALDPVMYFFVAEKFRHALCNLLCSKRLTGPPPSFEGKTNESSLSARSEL
T2 sequence (Q6NS65 whole entry): as above

O=c1ccn([C@@H]2O[C@H](COP(=O)(O)OP(=O)(O)O)[C@@H](O)[C@H]2O)c(=O)[nH]1 [UDP]
EC50 (mGPR17): 55000 ± 6200 pM

CCCCC/C=C\C\C=C/C=C/C=C/[C@@H](SC[C@H](N)C(=O)O)[C@@H](O)CCCC(=O)O [LTE4]
EC50 (mGPR17): 310 ± 90 pM

CSCCNc1nc(SCCC(F)(F)F)nc2c1ncn2[C@@H]1O[C@H](COP(=O)(O)OP(=O)(O)C(Cl)(Cl)P(=O)(O)O)[C@@H](O)[C@H]1O [Cangrelor]
IC50 (mGPR17; membranes of 1321N1 cells expressing mGPR17, 10 min pre-incubation, 500 nM UDP, read-out: IC50, inhibition of GTPγS binding stimulated by UDP): 1200 ± 300 pM
effect on UDP-glucose-induced increase of GPR17+ and MBP+ cells ([1]; 10 µM antagonist with 100 µM UDP-glucose): partially counteracted
progression of ischemic damage (brain infarct volume) at 24 and 48 h vs 2 h (GPR17; cangrelor 1.125 µg/animal i.c.v. 20 min after MCAo, oligonucleotides 10 µg/animal i.c.v. 20 min and 24 h after MCAo): totally abolished
ischemic infarct volume at 2 h after MCAo (GPR17; i.c.v. treatment 20 min after MCAo, 6 animals/group, no significant differences between groups): 16.4±4.23 mm^3

CCCCC/C=C\C\C=C/C=C/C=C/[C@@H](SC[C@H](NC(=O)CC[C@H](N)C(=O)O)C(=O)NCC(=O)O)[C@@H](O)CCCC(=O)O [LTC4]
EC50 (mGPR17): 740 ± 200 pM

CCCCC/C=C\C\C=C/C=C/C=C/[C@@H](SC[C@H](N)C(=O)NCC(=O)O)[C@@H](O)CCCC(=O)O [LTD4]
EC50 (mGPR17): 630 ± 100 pM
number of GPR17+ precursor cells [1, 2]: significantly increased
number of mature MBP+ oligodendroglial cells [1, 2]: significantly increased
